# Test results: patent US20200246352A1, “Vanadyl and vanadate for use in reducing stress-induced metabolic derangement” (CFM Pharma Holding B.V., priority 2017, published 2020)
# Where “and” joins values, the source holds several entries; their conditions need not be identical. Equal values may be shown once.
# Assays:
# healthy male Wistar rats [1] = assay: Example 2: BMOV pre-treatment before adrenaline-induced stress hyperglycemia, blood glucose; type: in vivo, rat
# Procedure: See Table 8 and Table 9 for further details.
# Measurement of glucose levels was performed by DCont TREND glucometer. DCont TREND test strips (77 Elektronika, http://www.regolymedical.hu/en/measuring-tools-and-surgicalinstruments/vercukormero-d-cont-trend.html), in duplicate in order to determine blood glucose levels. See Table 9 for the blood sampling regime during the course of the experiment.
# healthy male Wistar rats [2] = assay: Series 2: BMOV cumulative infusion during adrenaline (or saline) infusion, blood glucose; type: in vivo, rat
# Procedure: Glucose levels were measured at t=0, 120, 140, 160, 180 and 200 min.
# Blood glucose levels were measured at each time point in duplicates by directly dripping blood onto DCont TREND test strips (77 Elektronika, Budapest, Hungary). […] Blood samples were centrifuged at 4.000 rpm at 4° C. for 15 min. The prepared, separated samples derived from the centrifuged plasma (total volume 200 μl) were kept at −70° C. until shipment.
# [3] = Tonogen + 1x BMOV (15 mg/kg ip 3 h before adrenaline 0.3 microgram/kg/min), 0 min
# [4] = Tonogen + 1x BMOV (15 mg/kg ip 3 h before adrenaline), 30 min
# [5] = Tonogen + 1x BMOV (15 mg/kg ip 3 h before adrenaline), 60 min
# [6] = Tonogen + 1x BMOV (15 mg/kg ip 3 h before adrenaline), 90 min
# [7] = Tonogen + 1x BMOV (15 mg/kg ip 3 h before adrenaline), 120 min
# [8] = Tonogen + 1x BMOV (15 mg/kg ip 3 h before adrenaline), 150 min
# [9] = Tonogen + 1x BMOV (15 mg/kg ip 3 h before adrenaline), 180 min
# [10] = Tonogen + 2x BMOV (15 mg/kg ip 16-24 h and 3 h before adrenaline 0.3 microgram/kg/min), 0 min
# [11] = Tonogen + 2x BMOV (15 mg/kg ip 16-24 h and 3 h before adrenaline), 30 min
# [12] = Tonogen + 2x BMOV (15 mg/kg ip 16-24 h and 3 h before adrenaline), 60 min
# [13] = Tonogen + 2x BMOV (15 mg/kg ip 16-24 h and 3 h before adrenaline), 90 min
# [14] = Tonogen + 2x BMOV (15 mg/kg ip 16-24 h and 3 h before adrenaline), 120 min
# [15] = Tonogen + 2x BMOV (15 mg/kg ip 16-24 h and 3 h before adrenaline), 150 min
# [16] = Tonogen + 2x BMOV (15 mg/kg ip 16-24 h and 3 h before adrenaline), 180 min
# [17] = two doses of BMOV at different time points before stress
# [18] = Saline + BMOV group, 0 min, before saline and BMOV
# [19] = Saline + BMOV group, 120 min of saline, before BMOV dose 1
# [20] = Saline + BMOV group, 140 min, after BMOV 1 (0.34 mg/kg iv over 20 min)
# [21] = Saline + BMOV group, 180 min, after BMOV 3 (2.89 mg/kg, cumulative)
# [22] = Saline + BMOV group, 200 min, after BMOV 4 (8.50 mg/kg, cumulative)
# [23] = Tonogen + BMOV group (adrenaline 1 μg/kg/min), 0 min, before adrenaline and BMOV
# [24] = Tonogen + BMOV group, 120 min of adrenaline, before BMOV dose 1
compound,measurement,setting,value
"Cc1occc(=O)c1[O-].Cc1occc(=O)c1[O-].[O]=[V+2] [BMOV, Bis(maltolato)oxovanadium]",Effect of pretreatment on occurrence of hyperglycemia,"healthy male Wistar rats [1]; BMOV 3 h before stress, or at 16-24 h and 3 h before stress (adrenaline infusion)",surprisingly high reduction of the occurrence of hyperglycemia
same,"Blood glucose, individual animals in duplicate",healthy male Wistar rats [1]; [3],6.1 mM/l and 6.7 mM/l and 5.1 mM/l and 4.9 mM/l and 6.3 mM/l and 5.9 mM/l
same,"Blood glucose, mean",healthy male Wistar rats [1]; [3],5.833 mM/l
same,"Blood glucose, individual animals in duplicate",healthy male Wistar rats [1]; [4],6.9 mM/l (2×) and 5.1 mM/l and 5.9 mM/l and 7.5 mM/l and 7.2 mM/l
same,"Blood glucose, mean",healthy male Wistar rats [1]; [4],6.583 mM/l
same,"Blood glucose, individual animals in duplicate",healthy male Wistar rats [1]; [5],8.4 mM/l and 8 mM/l and 6 mM/l (2×) and 9.7 mM/l and 10 mM/l
same,"Blood glucose, mean",healthy male Wistar rats [1]; [5],8.017 mM/l
same,"Blood glucose, individual animals in duplicate",healthy male Wistar rats [1]; [6],9.4 mM/l and 9.2 mM/l and 9.8 mM/l and 9.7 mM/l and 8.6 mM/l and 9 mM/l
same,"Blood glucose, mean",healthy male Wistar rats [1]; [6],9.283 mM/l
same,"Blood glucose, individual animals in duplicate",healthy male Wistar rats [1]; [7],10.7 mM/l and 11.2 mM/l and 12.2 mM/l and 11.5 mM/l and 4.6 mM/l and 4.7 mM/l
same,"Blood glucose, mean",healthy male Wistar rats [1]; [7],9.15 mM/l
same,"Blood glucose, individual animals in duplicate",healthy male Wistar rats [1]; [8],12.3 mM/l and 12.6 mM/l and 11.7 mM/l and 11.6 mM/l
same,"Blood glucose, mean",healthy male Wistar rats [1]; [8],12.05 mM/l
same,"Blood glucose, individual animals in duplicate",healthy male Wistar rats [1]; [9],12.4 mM/l and 12.2 mM/l and 11.9 mM/l (2×)
same,"Blood glucose, mean",healthy male Wistar rats [1]; [9],12.1 mM/l
same,"Blood glucose, individual animals in duplicate",healthy male Wistar rats [1]; [10],5.2 mM/l (2×) and 5.4 mM/l and 4.4 mM/l and 4.3 mM/l and 5.1 mM/l and 5.8 mM/l and 4.8 mM/l
same,"Blood glucose, mean",healthy male Wistar rats [1]; [10],5.025 mM/l
same,"Blood glucose, individual animals in duplicate",healthy male Wistar rats [1]; [11],5.2 mM/l and 4.8 mM/l and 5 mM/l (2×) and 5.3 mM/l (2×) and 6.3 mM/l and 6.1 mM/l
same,"Blood glucose, mean",healthy male Wistar rats [1]; [11],5.375 mM/l
same,"Blood glucose, individual animals in duplicate",healthy male Wistar rats [1]; [12],5.2 mM/l and 4.4 mM/l and 4.3 mM/l and 6.3 mM/l and 6.4 mM/l and 7.1 mM/l and 7 mM/l and 5.3 mM/l
same,"Blood glucose, mean",healthy male Wistar rats [1]; [12],5.75 mM/l
same,"Blood glucose, individual animals in duplicate",healthy male Wistar rats [1]; [13],5.8 mM/l (2×) and 3.4 mM/l and 3.2 mM/l and 6.4 mM/l and 6.8 mM/l and 8.5 mM/l and 8.2 mM/l
same,"Blood glucose, mean",healthy male Wistar rats [1]; [13],6.0125 mM/l
same,"Blood glucose, individual animals in duplicate",healthy male Wistar rats [1]; [14],6.7 mM/l (2×) and 2.7 mM/l and 2.6 mM/l and 7.4 mM/l and 7.7 mM/l and 9.1 mM/l and 8.6 mM/l
same,"Blood glucose, mean",healthy male Wistar rats [1]; [14],6.4375 mM/l
same,"Blood glucose, individual animals in duplicate",healthy male Wistar rats [1]; [15],7.4 mM/l and 1.4 mM/l and 1.3 mM/l and 7.7 mM/l (2×) and 7.9 mM/l and 7.6 mM/l and 7.5 mM/l
same,"Blood glucose, mean",healthy male Wistar rats [1]; [15],6.0625 mM/l
same,"Blood glucose, individual animals in duplicate",healthy male Wistar rats [1]; [16],6.7 mM/l and 7 mM/l and 6.8 mM/l and 4.6 mM/l and 4.8 mM/l and 6.9 mM/l
same,"Blood glucose, mean",healthy male Wistar rats [1]; [16],6.133 mM/l
same,Effect on occurrence of hyperglycemia during the period of stress,healthy male Wistar rats [1]; first dose 16 to 24 h and second dose 3 h prior to stress,inhibited the occurrence of hyperglycemia
same,Effect on extent of hyperglycemia during the period of stress,healthy male Wistar rats [1]; single dose of BMOV 3 h prior to stress,reduced the extent of hyperglycemia considerably
same,Maximum average glucose level in the blood,healthy male Wistar rats [1]; [17],about 6.4 mmol/l
same,Rise in blood glucose level,healthy male Wistar rats [1]; [17],≤ 28%
same,Effect on the increase of the glucose level,healthy male Wistar rats [2]; BMOV administered after the start of and during continued stress (adrenaline infusion),lowers the extent of the increase of the glucose level
same,"Blood glucose level, individual animal in duplicate",healthy male Wistar rats [2]; [18],4.7 mM/l and 4.8 mM/l
same,"Blood glucose level, mean",healthy male Wistar rats [2]; [18],4.75 mM/l
same,"Blood glucose level, individual animal in duplicate",healthy male Wistar rats [2]; [19],5.7 mM/l and 5.3 mM/l
same,"Blood glucose level, mean",healthy male Wistar rats [2]; [19],5.50 mM/l
same,"Blood glucose level, individual animal in duplicate",healthy male Wistar rats [2]; [20],6.3 mM/l
same,"Blood glucose level, mean",healthy male Wistar rats [2]; [20],6.30 mM/l
same,"Blood glucose level, mean","healthy male Wistar rats [2]; Saline + BMOV group, 160 min, after BMOV 2 (1.02 mg/kg, cumulative)",6.60 mM/l
same,"Blood glucose level, individual animal in duplicate","healthy male Wistar rats [2]; Saline + BMOV group, 160 min, after BMOV 2 (1.02 mg/kg, cumulative), 1.02 mg/kg",6.5 mM/l and 6.7 mM/l
same,"Blood glucose level, individual animal in duplicate",healthy male Wistar rats [2]; [21],5.9 mM/l
same,"Blood glucose level, mean",healthy male Wistar rats [2]; [21],5.90 mM/l
same,"Blood glucose level, individual animal in duplicate",healthy male Wistar rats [2]; [22],3.8 mM/l
same,"Blood glucose level, mean",healthy male Wistar rats [2]; [22],3.80 mM/l
same,"Blood glucose level, individual animals in duplicate",healthy male Wistar rats [2]; [23],8.4 mM/l and 7.8 mM/l and 6.0 mM/l (2×)
same,"Blood glucose level, mean",healthy male Wistar rats [2]; [23],7.05 mM/l
same,"Blood glucose level, individual animals in duplicate",healthy male Wistar rats [2]; [24],16.4 mM/l and 16.5 mM/l and 11.7 mM/l and 11.2 mM/l
same,"Blood glucose level, mean",healthy male Wistar rats [2]; [24],13.95 mM/l
same,"Blood glucose level, mean","healthy male Wistar rats [2]; Tonogen + BMOV group, 140 min, after BMOV 1 (0.34 mg/kg iv over 20 min)",15.55 mM/l
same,"Blood glucose level, individual animals in duplicate","healthy male Wistar rats [2]; Tonogen + BMOV group, 140 min, after BMOV 1 (0.34 mg/kg iv over 20 min), 0.34 mg/kg",17.9 mM/l and 17.5 mM/l and 13.5 mM/l and 13.3 mM/l
same,"Blood glucose level, mean","healthy male Wistar rats [2]; Tonogen + BMOV group, 160 min, after BMOV 2 (1.02 mg/kg, cumulative)",15.18 mM/l
same,"Blood glucose level, individual animals in duplicate","healthy male Wistar rats [2]; Tonogen + BMOV group, 160 min, after BMOV 2 (1.02 mg/kg, cumulative), 1.02 mg/kg",14.6 mM/l and 14.5 mM/l and 15.7 mM/l and 15.9 mM/l
same,"Blood glucose level, mean","healthy male Wistar rats [2]; Tonogen + BMOV group, 180 min, after BMOV 3 (2.89 mg/kg, cumulative)",11.03 mM/l
same,"Blood glucose level, individual animals in duplicate","healthy male Wistar rats [2]; Tonogen + BMOV group, 180 min, after BMOV 3 (2.89 mg/kg, cumulative), 2.89 mg/kg",7.8 mM/l and 7.9 mM/l and 14.2 mM/l (2×)
same,"Blood glucose level, mean","healthy male Wistar rats [2]; Tonogen + BMOV group, 200 min, after BMOV 4 (8.50 mg/kg, cumulative)",7.28 mM/l
same,"Blood glucose level, individual animals in duplicate","healthy male Wistar rats [2]; Tonogen + BMOV group, 200 min, after BMOV 4 (8.50 mg/kg, cumulative), 8.5 mg/kg",4.3 mM/l and 4.4 mM/l and 10.1 mM/l and 10.3 mM/l
same,Effect on hyperglycemia compared to adrenaline+vehicle control group,"healthy male Wistar rats [2]; adrenaline 1 μg/kg/min, at 160-180 min",significantly decreased hyperglycemia
